# Source: ChEMBL document CHEMBL4699483, “Synthesis of functionalized derivatives of the gamma-secretase modulator BMS-932481 and identification of its major metabolite” (Bioorg Med Chem Lett, 2020)
# Experiments:
# Gamma-secretase = experiment: Modulation of gamma secretase (unknown origin) assessed as inhibition of amyloid beta (1 to 42 residues) production; type: protein-complex assay, Homo sapiens
# [1] = Drug metabolism assessed as iminoquinone A formation
# [2] = Drug metabolism assessed as (5R,7S)-7-(4-fluorophenyl)-2-(3-methoxy-4-(3-methyl-1H-1,2,4-triazol-1-yl)phenylamino)-4-(methylamino)-6,7-dihydro-5H-cyclopenta[d]pyrimidin-5-ol metabolite formation by LC/MS analysis
# [3] = Drug metabolism assessed as nitrile adduct formation in presence of KCN
# [4] = Metabolic stability in human liver microsomes assessed as parent compound remaining incubated for 30 mins; type: ADME, Microsome; details: read-out: Stabilty
# [5] = Metabolic stability in rat liver microsomes assessed as parent compound remaining incubated for 30 mins; type: ADME, Microsome; details: read-out: Stabilty
# [6] = Drug metabolism assessed as (S)-7-(4-fluorophenyl)-2-(3-methoxy-4-(3-methyl-1H-1,2,4-triazol-1-yl)phenylamino)-4-(methylamino)-6,7-dihydro-5H-cyclopenta[d]pyrimidin-5-one metabolite formation by LC/MS analysis
# [7] = Glutathione reactivity in liver microsomes assessed as GSH-adduct formation; type: ADME
# Cytochrome P450 3A4 = Cytochrome P450 3A4 (Homo sapiens, UniProt P08684); experiment: Time-dependent inhibition of CYP3A4 in human liver microsomes assessed as inhibition constant by Kitz-Wilson plot analysis; type: ADME
# Chain of Cytochrome P450 3A4 (P08684 whole entry): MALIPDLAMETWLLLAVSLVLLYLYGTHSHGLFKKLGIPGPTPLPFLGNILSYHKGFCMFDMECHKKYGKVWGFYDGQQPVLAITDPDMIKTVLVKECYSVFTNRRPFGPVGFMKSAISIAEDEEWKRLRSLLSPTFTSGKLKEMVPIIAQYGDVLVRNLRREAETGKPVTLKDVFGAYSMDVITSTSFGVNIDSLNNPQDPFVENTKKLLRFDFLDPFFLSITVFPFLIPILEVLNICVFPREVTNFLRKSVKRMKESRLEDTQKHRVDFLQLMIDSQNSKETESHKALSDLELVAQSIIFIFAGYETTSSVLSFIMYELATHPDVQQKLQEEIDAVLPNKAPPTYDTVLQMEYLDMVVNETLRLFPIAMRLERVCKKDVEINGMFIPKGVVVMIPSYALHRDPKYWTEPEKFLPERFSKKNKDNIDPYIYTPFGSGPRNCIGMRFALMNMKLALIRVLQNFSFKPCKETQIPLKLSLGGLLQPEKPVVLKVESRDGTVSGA
smiles,measurement,setting,value
CNc1nc(Nc2ccc(-n3cnc(C)n3)c(OC)c2)nc2c1C(=O)C[C@H]2c1ccc(F)cc1,IC50,Gamma-secretase,14 nM
CNc1nc(Nc2ccc(-n3cnc(C)n3)c(OC)c2)nc2c1CC[C@H]2c1ccc(F)cc1,Drug metabolism,[1],Metabolite detected
same,Drug metabolism,[2],Metabolite detected
same,Drug metabolism,[3],Metabolite detected
same,remaining at 0.5 h,[4],94%
same,remaining at 0.5 h,[5],89%
same,Drug metabolism,[6],Metabolite detected
same,Drug metabolism,[7],Not Active
CNc1nc(Nc2ccc(-n3cnc(C)n3)c(OC)c2)nc2c1CC[C@@H]2c1ccc(F)cc1,Drug metabolism,[1],Metabolite detected
same,Drug metabolism,[2],Metabolite detected
same,Drug metabolism,[3],Metabolite detected
same,remaining at 0.5 h,[4],94%
same,Ki,Cytochrome P450 3A4,82500 nM
same,remaining at 0.5 h,[5],89%
same,Drug metabolism,[6],Metabolite detected
same,Drug metabolism,[7],Not Active
CNc1nc(Nc2ccc(-n3cnc(C)n3)c(OC)c2)nc2c1CC[C@]2(O)c1ccc(F)cc1,IC50,Gamma-secretase,96 nM
CNc1nc(Nc2ccc(-n3cnc(C)n3)c(OC)c2)nc2c1CC[C@@]2(O)c1ccc(F)cc1,IC50,Gamma-secretase,2300 nM
CNc1nc(Nc2ccc(-n3cnc(C)n3)c(OC)c2)nc2c1[C@H](O)C[C@H]2c1ccc(F)cc1,IC50,Gamma-secretase,17 nM
CNc1nc(Nc2ccc(-n3cnc(C)n3)c(OC)c2)nc2c1/C(=N/O)C[C@H]2c1ccc(F)cc1,IC50,Gamma-secretase,5 nM
CNc1nc(Nc2ccc(-n3cnc(C)n3)c(OC)c2)nc2c1/C(=N/O)CC2c1ccc(F)cc1 (racemic),IC50,Gamma-secretase,10 nM
CNc1nc(Nc2ccc(-n3cnc(C)n3)c(OC)c2)nc2c1C(C)(O)CC2c1ccc(F)cc1 (racemic),IC50,Gamma-secretase,60 nM
